# Laboratory results taken from patent publication US20220323487A1, “METERED DOSE FOR DEMODEX AND DISORDERS RELATED THERETO” (Azura Ophthalmics Ltd., priority 2019, published 2022).
# Legend:
# [1] = test system: Demodex folliculorum mites; experiment: In vitro assessment of anti-demodectic properties: viability of Demodex mites on epilated eyelashes; settings: SeS2 4%
# [2] = cited from earlier work
# [3] = rabbit, in vivo; cited from earlier work
# [4] = rabbit, in vivo
# Text: On a subsequent study to Example 6, concentrations ranging from 0.5 wt. % to 2.5 wt. % were used on New-Zealand rabbits, once daily to twice weekly for 28 days.
# [5] = Method: The composition is prepared by the combination of selenium disulfide (SeS2) in combination with Petrolatum base (and in the absence of surface acting agents). Compositions comprising various concentrations of selenium disulfide are prepared, such as 0.1 wt. %, 0.5 wt. %, 1 wt. %, 1.5 wt. %, 2 wt. %, and 2.5 wt. %.
# Various compositions prepared as described above are administered to the eye or eyelid (e.g., margin thereof) of albino rabbits. Various compositions are administered to distinct cohorts using various treatment protocols, such as based on frequency of administration (e.g., once daily, twice daily, every other day, and once weekly) and volume of administration (e.g., <25 μL, […] per administration). Compositions lacking selenium disulfide are administered to a separate cohort to establish a control.
# Albino rabbits are evaluated, and an accurate volume of the composition is ejected from a device (e.g., micropipette) and is delivered to the lower eyelid of the rabbits. In one example, the volume is ˜25 μL (equivalent to 20 mg in weight). The rabbits are examined daily.
# 2.5% SeS2 at a dosing volume of 25 μL is administered to the animals.
# Therefore, a reduced dose of 5 μL (equivalent to 4 mg) is placed on the lid of the rabbits.
# Remark: listed apart in the source
# [6] = in vivo; cited from earlier work
# [7] = 25 μL (20 mg) of 2.5% SeS2 with petrolatum, lower eyelid of right eye
structure (smiles),measurement,setting,value
"S=[Se]=S [SeS2, selenium disulfide]",death of the mites,[1],caused death of the mites
same,tolerability of ointment on the lids,"[2]; 0.5 percent ointment, all patients complained of burning of the conjunctiva (Rychener)",too strong
same,epithelial keratitis,"[2]; human, in vivo",6 cases
same,"keratitis, conjunctivitis with erythematous and swollen lids","[2]; human, in vivo",Two
same,time to onset of ocular effects after application,[3],≤ 2 h
same,ophthalmic observations versus previous study,[4],safer
same,clinical or microscopic findings,"[5]; 0.5%, 1.0% or 2.5%, twice weekly or once daily, dose volume 5 μL, summary, species not stated",no clinical or microscopic findings
same,"keratitis, including red and swollen eyelids, animals affected","[5]; rabbit, in vivo",all animals
same,ocular effects at reduced dose,"[5]; rabbit, in vivo",no evidence for any of the effects
same,finding on clinical examination,[7],keratitis is observed with multiple punctate over the center exposed part of the cornea
same,time to reported pain,[7],About 4 hours
same,time to resolution of keratitis,treated with lubricants and local NSAID,≤ 48 h
same,irritancy to rabbit dermis,[6],did not appear to be irritant
